For 13 molecules, MIC and Activity results are on record in ChEMBL document CHEMBL3046829, “Design, synthesis, and structureactivity relationship study of 5-amido-1-(2,4-dinitrophenyl)-1H-4-pyrazolecarbonitrils as DD-carboxypeptidase/penicillin-binding protein inhibitors with Gram-positive antibacterial activity” (2010).

Each structure is given as a SMILES string. In brackets after ≈: the same amount, converted by molar mass. Activity calls are given as the source filed them.

Test [1] has as its system Staphylococcus aureus. In words: Antibacterial activity against methicillin-susceptible Staphylococcus aureus ATCC 1112 after 18 hr by NCCLS dilution tube method. It counts as functional. The following applies: for MIC: ATCC 1112, 18 h.
Test [2] has as its system Staphylococcus aureus. In words: Antibacterial activity against methicillin-resistant Staphylococcus aureus after 18 hr by NCCLS dilution tube method. Format: functional.
In test [3] the test system is Streptococcus pyogenes. In words: Antibacterial activity against Streptococcus pyogenes after 18 hr by NCCLS dilution tube method. It counts as functional.
Test [4] has as its system Streptococcus pneumoniae. In words: Antibacterial activity against Streptococcus pneumoniae after 18 hr by NCCLS dilution tube method. Format: functional.
For test [5], the system named is Klebsiella pneumoniae. In words: Antibacterial activity against Klebsiella pneumoniae at > 1000 uM after 18 hr by NCCLS dilution tube method. Format: functional, organism-based.
Test [6] relates to Pseudomonas aeruginosa. In words: Antibacterial activity against Pseudomonas aeruginosa at > 1000 uM after 18 hr by NCCLS dilution tube method. It counts as functional, organism-based.
For test [7], the system named is Pseudomonas aeruginosa. In words: Antibacterial activity against Pseudomonas aeruginosa after 18 hr by NCCLS dilution tube method. Format: functional.
The test system of test [8] is Klebsiella pneumoniae. In words: Antibacterial activity against Klebsiella pneumoniae after 18 hr by NCCLS dilution tube method. Format: functional.

A word on the MIC: it is the smallest concentration in the dilution series that meets the test's criterion for growth inhibition. As for `COc1ccc(C(=O)Nc2c(C#N)cnn2-c2ccc([N+](=O)[O-])cc2[N+](=O)[O-])cc1`, the MIC in test [1] amounted to 31.9 µM (≈ 13 µg/mL); in test [2], 15.3 µM (≈ 6.25 µg/mL).
For the molecule `N#Cc1cnn(-c2ccc([N+](=O)[O-])cc2[N+](=O)[O-])c1N`, the outcome in test [3], in test [4] and in test [1] was inactive.
For `N#Cc1cnn(-c2ccc([N+](=O)[O-])cc2[N+](=O)[O-])c1NC(=O)C1CCCCC1`, the MIC in test [1] is 195 µM (≈ 75.1 µg/mL); in test [2], 391 µM (≈ 150 µg/mL). The result in test [5] and in test [6] was inactive.
`CC1=C(C(=O)O)N2C(=O)[C@@H](NC(=O)[C@H](N)c3ccccc3)[C@H]2SC1` [CEPHALEXIN ANHYDROUS]: the MIC in test [1] amounted to 4.6 µM (≈ 1.6 µg/mL); in test [2], 72 µM (≈ 25 µg/mL).
Take `N#Cc1cnn(-c2ccc([N+](=O)[O-])cc2[N+](=O)[O-])c1NC(=O)c1ccccc1`: the MIC in test [1] was 132 µM (≈ 50 µg/mL); in test [2], 264 µM (≈ 100 µg/mL). Also, the outcome in test [5] and in test [6] was inactive.
As for `N#Cc1cnn(-c2ccc([N+](=O)[O-])cc2[N+](=O)[O-])c1NC(=O)c1ccc(Cl)cc1`, the MIC amounted to 15.3 µM (≈ 6.32 µg/mL) in test [1] and 60.5 µM (≈ 25 µg/mL) in test [2].
For `N#Cc1cnn(-c2ccc([N+](=O)[O-])cc2[N+](=O)[O-])c1NC(=O)c1ccc(F)cc1`, in that order: 126 µM (≈ 50.1 µg/mL) and 252 µM (≈ 100 µg/mL).
As to `CC(=O)Nc1c(C#N)cnn1-c1ccc([N+](=O)[O-])cc1[N+](=O)[O-]`, the MIC came out at 100 µg/mL (≈ 316 µM) in test [3], 100 µg/mL (≈ 316 µM) in test [4], 316 µM (≈ 99.9 µg/mL) in test [1] and 632 µM (≈ 200 µg/mL) in test [2]. In addition, the result in test [5] and in test [6] was inactive.
Regarding `Cc1ccc(C(=O)Nc2c(C#N)cnn2-c2ccc([N+](=O)[O-])cc2[N+](=O)[O-])cc1`, the values for the MIC in test [1] and in test [2] were 60.5 µM (≈ 23.7 µg/mL) and 63.8 µM (≈ 25 µg/mL), respectively.
As for `N#Cc1cnn(-c2ccc([N+](=O)[O-])cc2[N+](=O)[O-])c1NC(=O)C12CC3CC(CC(C3)C1)C2`, the MIC in test [7] was above 300 µM; in test [1] it was 57.4 µM (≈ 25.1 µg/mL); in test [2], 57.4 µM (≈ 25.1 µg/mL); in test [8], above 300 µM.
Regarding `CN(C)c1ccc(C(=O)Nc2c(C#N)cnn2-c2ccc([N+](=O)[O-])cc2[N+](=O)[O-])cc1`, the MIC in test [1] and in test [2] was 3.8 µM (≈ 1.6 µg/mL) each time.
As for `Cc1onc(-c2ccccc2Cl)c1C(=O)N[C@@H]1C(=O)N2[C@@H]1SC(C)(C)[C@@H]2C(=O)O` [CLOXACILLIN], the MIC came out at 13.7 µM (≈ 5.97 µg/mL) in test [1] and 94 µM (≈ 41 µg/mL) in test [2].
For `N#Cc1cnn(-c2ccc([N+](=O)[O-])cc2[N+](=O)[O-])c1NC(=O)c1ccc(Br)cc1`, in that order: 27.4 µM (≈ 12.5 µg/mL) and 27.4 µM (≈ 12.5 µg/mL).
